14 compounds from ChEMBL document CHEMBL1139380, “Edaravone derivatives containing NO-donor functions” (J Med Chem, 2009) can be followed below.

A short description of series [1]: physchem.
Description: Dissociation constant, pKa by potentiometric titration
Series [2] relates to Aorta. Put plainly: tissue or blood. The settings on record: Rattus norvegicus, Wistar.
Description: (§1) Vasodilation activity in Wistar rat aorta assessed as relaxation of phenylephrine-induced contraction
Series [3] is described as follows: physchem. Conditions: octanol/water.
Description: Lipophilicity, neutral log P of the compound
In series [4] the test system is Liver microsomes.
Description: Antioxidant activity against Fe2SO4/ascorbate-induced lipid peroxidation in Wistar rat liver microsomal membrane by TBARS assay
For series [5] the following is noted: octanol/water.
Description: Lipophilicity, ionic log P by shake flask method
Series [6] is described as follows: physchem. Conditions: octanol/water, pH 7.4.
In series [7] the test system is Liver microsomes. Put plainly: Antioxidant activity against […]/ascorbate-induced lipid peroxidation in Wistar rat liver microsomal membrane at 05 to 15 uM by TBARS assay. The format is functional. Conditions: Microsome.
Series [8] deals with Aorta.
Description: as §1

Calls of active or inactive are those of the source. The calls are words filed in the database; no cut-off is given here.

With `CC1=NN(c2ccc(OCc3no[n+]([O-])c3C#N)cc2)C(=O)C1`, the pKa in series [1] turned out to be 7.06. The EC50 in series [2] is 23 nM. This compound also had a logP in series [3] of 1.72. Further, half-maximal inhibition in series [4] (IC50) required 5.8 µM. In series [5], this compound came in with a logPi of -0.99. The logD in series [6] stood at 1.28.

Compound `COCCCCCCO[N+](=O)[O-]` came in with an EC50 in series [2] of 1400 nM. Also, in series [7], the result was inactive. For the same compound, in series [3], the logP was determined as 2.23.

Consider `CC1=NN(c2ccc(OCCCOc3no[n+]([O-])c3S(=O)(=O)c3ccccc3)cc2)C(=O)C1`, for which, in series [1], the pKa came to 7.12. This compound also gave an EC50 in series [2] of 77 nM. The logP in series [3] is 3.62. The compound further displayed an IC50 in series [4] of 3.8 µM. Also, the logPi in series [5] amounted to 0.4. Besides, the logD in series [6] worked out at 3.16.

With `CC1=NN(c2ccccc2)C(=O)C1` [EDARAVONE], in series [1], the pKa is 6.9. In addition, the logP in series [3] turned out to be 1.28. Further, the IC50 in series [4] came to 17 µM. In addition, the EC50 entry in series [8] is “Not Active”. Further, the logD in series [6] was determined as 0.78.

On to `COc1no[n+]([O-])c1-c1ccccc1`, for which, in series [2], a half-maximal response (EC50) required 5600 nM. The result in series [7] was inactive. The compound also returned a logP in series [3] of 2.47.

Take `COCCCO[N+](=O)[O-]`: the EC50 in series [2] was 9600 nM. Further, the outcome in series [7] was inactive. The logP in series [3] worked out at 1.01.

On to `CC1=NN(c2ccc(OCCCCC(CO[N+](=O)[O-])O[N+](=O)[O-])cc2)C(=O)C1` (stereo not drawn), for which the pKa in series [1] came to 7.15. A half-maximal response in series [2] (EC50) required 680 nM. Further, the logP in series [3] is 3.1. The same compound registered an IC50 in series [4] of 2.9 µM. For the same compound, the logPi in series [5] was found to be 0.05. The compound also had a logD in series [6] of 2.54.

In series [1], `CC1=NN(c2ccc(OCCCO[N+](=O)[O-])cc2)C(=O)C1` displayed a pKa of 7.11. The EC50 in series [2] was 1100 nM. In series [3], this compound displayed a logP of 1.9. The compound also had an IC50 in series [4] of 3.4 µM. Moreover, in series [5], the logPi is given as -1.07. In series [6], this compound displayed a logD of 1.59.

`CCOc1no[n+]([O-])c1S(=O)(=O)c1ccccc1` had an EC50 in series [2] of 12 nM. In series [7], the outcome was inactive. For the same compound, the logP in series [3] was determined as 3.15.

The compound `COCc1no[n+]([O-])c1C(N)=O` came in with an EC50 in series [2] of 3900 nM. For the same compound, the result in series [7] was inactive. The logP in series [3] is 0.14.

Consider `CC1=NN(c2ccc(OCc3no[n+]([O-])c3C(N)=O)cc2)C(=O)C1`, for which the pKa in series [1] was 7.08. This compound yielded an EC50 in series [2] of 2800 nM. Also, the logP in series [3] worked out at 0.92. Moreover, the IC50 in series [4] was determined as 7.9 µM. In series [6], this compound displayed a logD of 0.48.

With `CC1=NN(c2ccc(OCCCCCCO[N+](=O)[O-])cc2)C(=O)C1`, the pKa in series [1] was 7.12. A half-maximal response in series [2] (EC50) required 980 nM. This compound also gave a logP in series [3] of 3.34. Besides, the IC50 in series [4] turned out to be 2.1 µM. This compound also displayed a logPi in series [5] of 0.15. In addition, the logD in series [6] was determined as 2.67.

As for `COc1ccc(N2N=C(C)CC2=O)cc1`, in series [1], the pKa amounted to 7.06. In series [3], this compound returned a logP of 1.19. Besides, the IC50 in series [4] is 20 µM. The EC50 result in series [8] is “Not Active”. The logD in series [6] came out at 0.77.

`COCc1no[n+]([O-])c1C#N`: the EC50 in series [2] stood at 9.5 nM. The result in series [7] was inactive. In series [3], the logP turned out to be 0.83.
